Assay results published in patent US11427549B2, “Pyrimidinyloxy benzo-fused compounds as herbicides” (FMC Corporation, priority 2017, dated 2022).

Key:
[1] = tested on: barnyardgrass (Echinochloa crus-galli); experiment: Test B flooded paddy test, barnyardgrass; conditions: Echinochloa crus-galli, read-out: Plant response rating, Barnyardgrass (0 to 100 scale, 0 is no effect, 100 is complete control)
kochia (Kochia scoparia) [2] = experiment: Test A preemergence, kochia; format: in vivo; conditions: Bassia scoparia, pre-emergence, 240 h, 0 to 100 scale (0 no effect, 100 complete control), read-out: Plant response rating, Kochia; for pest or weed control at 31 g/ha: 31 g ai/ha; for pest or weed control at 125 g/ha: 125 g ai/ha
[3] = tested on: pigweed (Amaranthus retroflexus); experiment: Test A preemergence, pigweed; format: in vivo; conditions: Amaranthus retroflexus, pre-emergence, 240 h, 0 to 100 scale (0 no effect, 100 complete control), read-out: Plant response rating, Pigweed; for pest or weed control at 31 g/ha: 31 g ai/ha; for pest or weed control at 125 g/ha: 125 g ai/ha
kochia (Kochia scoparia) [4] = experiment: Test A postemergence, kochia; format: in vivo; conditions: Bassia scoparia, post-emergence, 240 h, 0 to 100 scale (0 no effect, 100 complete control), read-out: Plant response rating, Kochia; for pest or weed control at 31 g/ha: 31 g ai/ha; for pest or weed control at 125 g/ha: 125 g ai/ha
[5] = tested on: ragweed (common ragweed, Ambrosia elatior); experiment: Test A postemergence, ragweed; format: in vivo; conditions: Ambrosia artemisiifolia, post-emergence, 240 h, 0 to 100 scale (0 no effect, 100 complete control), read-out: Plant response rating, Ragweed; for pest or weed control at 31 g/ha: 31 g ai/ha; for pest or weed control at 125 g/ha: 125 g ai/ha
[6] = tested on: blackgrass (Alopecurus myosuroides); experiment: Test A postemergence, blackgrass; format: in vivo; conditions: Alopecurus myosuroides, post-emergence, 240 h, 0 to 100 scale (0 no effect, 100 complete control), read-out: Plant response rating, Blackgrass; for pest or weed control at 31 g/ha: 31 g ai/ha; for pest or weed control at 125 g/ha: 125 g ai/ha
[7] = tested on: pigweed (Amaranthus retroflexus); experiment: Test A postemergence, pigweed; format: in vivo; conditions: Amaranthus retroflexus, post-emergence, 240 h, 0 to 100 scale (0 no effect, 100 complete control), read-out: Plant response rating, Pigweed; for pest or weed control at 31 g/ha: 31 g ai/ha; for pest or weed control at 125 g/ha: 125 g ai/ha
[8] = tested on: ragweed (common ragweed, Ambrosia elatior); experiment: Test A preemergence, ragweed; format: in vivo; conditions: Ambrosia artemisiifolia, pre-emergence, 240 h, 0 to 100 scale (0 no effect, 100 complete control), read-out: Plant response rating, Ragweed; for pest or weed control at 31 g/ha: 31 g ai/ha; for pest or weed control at 125 g/ha: 125 g ai/ha
[9] = tested on: ducksalad (Heteranthera limosa); experiment: Test B flooded paddy test, ducksalad; conditions: Heteranthera limosa, read-out: Plant response rating, Ducksalad (0 to 100 scale, 0 is no effect, 100 is complete control)
rice (Oryza sativa) = experiment: Test B flooded paddy test, rice; conditions: Oryza sativa, read-out: Plant response rating, Rice (0 to 100 scale, 0 is no effect, 100 is complete control)
[10] = tested on: ryegrass, Italian (Italian ryegrass, Lolium multiflorum); experiment: Test A postemergence, ryegrass, Italian; format: in vivo; conditions: Lolium multiflorum, post-emergence, 240 h, 0 to 100 scale (0 no effect, 100 complete control), read-out: Plant response rating, Ryegrass, Italian; for pest or weed control at 31 g/ha: 31 g ai/ha; for pest or weed control at 125 g/ha: 125 g ai/ha
[11] = tested on: wheat (Triticum aestivum); experiment: Test A postemergence, wheat; format: in vivo; conditions: Triticum aestivum, post-emergence, 240 h, 0 to 100 scale (0 no effect, 100 complete control), read-out: Plant response rating, Wheat; for plant injury at 31 g/ha: 31 g ai/ha; for plant injury at 125 g/ha: 125 g ai/ha
[12] = tested on: barnyardgrass (Echinochloa crus-galli); experiment: Test A postemergence, barnyardgrass; format: in vivo; conditions: Echinochloa crus-galli, post-emergence, 240 h, 0 to 100 scale (0 no effect, 100 complete control), read-out: Plant response rating, Barnyardgrass; for pest or weed control at 31 g/ha: 31 g ai/ha; for pest or weed control at 125 g/ha: 125 g ai/ha
[13] = tested on: galium (catchweed bedstraw, Galium aparine); experiment: Test A postemergence, galium; format: in vivo; conditions: Galium, post-emergence, 240 h, 0 to 100 scale (0 no effect, 100 complete control), read-out: Plant response rating, Galium; for pest or weed control at 31 g/ha: 31 g ai/ha; for pest or weed control at 125 g/ha: 125 g ai/ha
corn (Zea mays) = experiment: Test A postemergence, corn; format: in vivo; conditions: Zea mays, post-emergence, 240 h, 0 to 100 scale (0 no effect, 100 complete control); for Corn plant response rating (crop injury, 0 = no effect, 100 = complete kill) at 31 g/ha: 31 g ai/ha; for Corn plant response rating (crop injury, 0 = no effect, 100 = complete kill) at 125 g/ha: 125 g ai/ha
[14] = tested on: ryegrass, Italian (Italian ryegrass, Lolium multiflorum); experiment: Test A preemergence, ryegrass, Italian; format: in vivo; conditions: Lolium multiflorum, pre-emergence, 240 h, 0 to 100 scale (0 no effect, 100 complete control), read-out: Plant response rating, Ryegrass, Italian; for pest or weed control at 31 g/ha: 31 g ai/ha; for pest or weed control at 125 g/ha: 125 g ai/ha
[15] = tested on: barnyardgrass (Echinochloa crus-galli); experiment: Test A preemergence, barnyardgrass; format: in vivo; conditions: Echinochloa crus-galli, pre-emergence, 240 h, 0 to 100 scale (0 no effect, 100 complete control), read-out: Plant response rating, Barnyardgrass; for pest or weed control at 31 g/ha: 31 g ai/ha; for pest or weed control at 125 g/ha: 125 g ai/ha

## O=C1OC(CCC(F)(F)F)Cc2c(Oc3ncc(Cl)cn3)cccc21 (stereo not drawn) [Compound 23, 5-[(5-Chloro-2-pyrimidinyl)oxy]-3,4-dihydro-3-(3,3,3-trifluoropropyl)-1H-2-benzopyran-1-one]
[1]
  pest or weed control at 250 g/ha: 0%
Kochia (Kochia scoparia) [2]
  pest or weed control at 31 g/ha: 0%
  pest or weed control at 125 g/ha: 60%
[3]
  pest or weed control at 31 g/ha: 20%
  pest or weed control at 125 g/ha: 100%
Kochia (Kochia scoparia) [4]
  pest or weed control at 31 g/ha: 20%
  pest or weed control at 125 g/ha: 70%
[5]
  pest or weed control at 31 g/ha: 0%
  pest or weed control at 125 g/ha: 10%
[6]
  pest or weed control at 31 g/ha: 20%
  pest or weed control at 125 g/ha: 30%
[7]
  pest or weed control at 31 g/ha: 60%
  pest or weed control at 125 g/ha: 70%
[8]
  pest or weed control at 31 g/ha: 0%
  pest or weed control at 125 g/ha: 0%
[9]
  pest or weed control at 250 g/ha: 0%
Rice (Oryza sativa)
  plant injury at 250 g/ha: 0%
[10]
  pest or weed control at 31 g/ha: 0%
  pest or weed control at 125 g/ha: 0%
[11]
  plant injury at 31 g/ha: 20%
  plant injury at 125 g/ha: 30%
[12]
  pest or weed control at 31 g/ha: 20%
  pest or weed control at 125 g/ha: 20%
[13]
  pest or weed control at 31 g/ha: 40%
  pest or weed control at 125 g/ha: 70%
Corn (Zea mays)
  Corn plant response rating (crop injury, 0 = no effect, 100 = complete kill) at 31 g/ha: 10%
  Corn plant response rating (crop injury, 0 = no effect, 100 = complete kill) at 125 g/ha: 20%
[14]
  pest or weed control at 31 g/ha: 0%
  pest or weed control at 125 g/ha: 0%
[15]
  pest or weed control at 31 g/ha: 0%
  pest or weed control at 125 g/ha: 30%

## FC(F)(F)CC[C@H]1OCc2cccc(Oc3ncc(Cl)cn3)c21 [Compound 20, 5-Chloro-2-[[(3R)-1,3-dihydro-3-(3,3,3-trifluoropropyl)-4-isobenzofuranyl]oxy]-pyrimidine]
[1]
  pest or weed control at 250 g/ha: 90%
Kochia (Kochia scoparia) [2]
  pest or weed control at 31 g/ha: 100%
  pest or weed control at 125 g/ha: 100%
[3]
  pest or weed control at 31 g/ha: 100%
  pest or weed control at 125 g/ha: 100%
Kochia (Kochia scoparia) [4]
  pest or weed control at 31 g/ha: 90%
  pest or weed control at 125 g/ha: 100%
[5]
  pest or weed control at 31 g/ha: 30%
  pest or weed control at 125 g/ha: 70%
[6]
  pest or weed control at 31 g/ha: 80%
  pest or weed control at 125 g/ha: 100%
[7]
  pest or weed control at 31 g/ha: 100%
  pest or weed control at 125 g/ha: 100%
[8]
  pest or weed control at 31 g/ha: 30%
  pest or weed control at 125 g/ha: 100%
[9]
  pest or weed control at 250 g/ha: 100%
Rice (Oryza sativa)
  plant injury at 250 g/ha: 30%
[10]
  pest or weed control at 31 g/ha: 30%
  pest or weed control at 125 g/ha: 80%
[11]
  plant injury at 31 g/ha: 20%
  plant injury at 125 g/ha: 90%
[12]
  pest or weed control at 31 g/ha: 40%
  pest or weed control at 125 g/ha: 100%
[13]
  pest or weed control at 31 g/ha: 90%
  pest or weed control at 125 g/ha: 100%
Corn (Zea mays)
  Corn plant response rating (crop injury, 0 = no effect, 100 = complete kill) at 31 g/ha: 30%
  Corn plant response rating (crop injury, 0 = no effect, 100 = complete kill) at 125 g/ha: 50%
[14]
  pest or weed control at 31 g/ha: 10%
  pest or weed control at 125 g/ha: 60%
[15]
  pest or weed control at 31 g/ha: 70%
  pest or weed control at 125 g/ha: 100%

## O=C1c2cccc(Oc3ncc(Cl)cn3)c2C1CCC(F)(F)F (stereo not drawn) [Compound 24, 2-[(5-Chloro-2-pyrimidinyl)oxy]-8-(3,3,3-trifluoropropyl)bicyclo[4.2.0]octa-1,3,5-trien-7-one]
[1]
  pest or weed control at 250 g/ha: 25%
Kochia (Kochia scoparia) [2]
  pest or weed control at 31 g/ha: 20%
  pest or weed control at 125 g/ha: 60%
[3]
  pest or weed control at 31 g/ha: 0%
  pest or weed control at 125 g/ha: 30%
Kochia (Kochia scoparia) [4]
  pest or weed control at 31 g/ha: 20%
  pest or weed control at 125 g/ha: 50%
[5]
  pest or weed control at 31 g/ha: 0%
  pest or weed control at 125 g/ha: 20%
[6]
  pest or weed control at 31 g/ha: 30%
  pest or weed control at 125 g/ha: 80%
[7]
  pest or weed control at 31 g/ha: 20%
  pest or weed control at 125 g/ha: 70%
[8]
  pest or weed control at 125 g/ha: 0%
[9]
  pest or weed control at 250 g/ha: 90%
Rice (Oryza sativa)
  plant injury at 250 g/ha: 0%
[10]
  pest or weed control at 31 g/ha: 0%
  pest or weed control at 125 g/ha: 20%
[11]
  plant injury at 31 g/ha: 0%
  plant injury at 125 g/ha: 0%
[12]
  pest or weed control at 31 g/ha: 20%
  pest or weed control at 125 g/ha: 70%
[13]
  pest or weed control at 31 g/ha: 20%
  pest or weed control at 125 g/ha: 80%
Corn (Zea mays)
  Corn plant response rating (crop injury, 0 = no effect, 100 = complete kill) at 31 g/ha: 10%
  Corn plant response rating (crop injury, 0 = no effect, 100 = complete kill) at 125 g/ha: 20%
[14]
  pest or weed control at 31 g/ha: 0%
  pest or weed control at 125 g/ha: 10%
[15]
  pest or weed control at 31 g/ha: 0%
  pest or weed control at 125 g/ha: 50%

## O=C1OCC(CCC(F)(F)F)c2c(Oc3ncc(Cl)cn3)cccc21 (stereo not drawn) [Compound 25, 5-[(5-Chloro-2-pyrimidinyl)oxy]-3,4-dihydro-4-(3,3,3-trifluoropropyl)-1H-2-benzopyran-1-one]
[1]
  pest or weed control at 250 g/ha: 0%
Kochia (Kochia scoparia) [2]
  pest or weed control at 31 g/ha: 0%
  pest or weed control at 125 g/ha: 70%
[3]
  pest or weed control at 31 g/ha: 10%
  pest or weed control at 125 g/ha: 100%
Kochia (Kochia scoparia) [4]
  pest or weed control at 31 g/ha: 30%
  pest or weed control at 125 g/ha: 60%
[5]
  pest or weed control at 31 g/ha: 0%
  pest or weed control at 125 g/ha: 30%
[6]
  pest or weed control at 31 g/ha: 20%
  pest or weed control at 125 g/ha: 60%
[7]
  pest or weed control at 31 g/ha: 30%
  pest or weed control at 125 g/ha: 50%
[8]
  pest or weed control at 31 g/ha: 0%
  pest or weed control at 125 g/ha: 0%
[9]
  pest or weed control at 250 g/ha: 0%
Rice (Oryza sativa)
  plant injury at 250 g/ha: 0%
[10]
  pest or weed control at 31 g/ha: 0%
  pest or weed control at 125 g/ha: 0%
[11]
  plant injury at 31 g/ha: 0%
  plant injury at 125 g/ha: 10%
[12]
  pest or weed control at 31 g/ha: 0%
  pest or weed control at 125 g/ha: 10%
[13]
  pest or weed control at 31 g/ha: 30%
  pest or weed control at 125 g/ha: 40%
Corn (Zea mays)
  Corn plant response rating (crop injury, 0 = no effect, 100 = complete kill) at 31 g/ha: 20%
  Corn plant response rating (crop injury, 0 = no effect, 100 = complete kill) at 125 g/ha: 20%
[14]
  pest or weed control at 31 g/ha: 0%
  pest or weed control at 125 g/ha: 0%
[15]
  pest or weed control at 31 g/ha: 0%
  pest or weed control at 125 g/ha: 30%
